Key:
[1] = Circular dichroism, percent α helicity; format: physicochemical; conditions: CD, 222 nm MRE, 50 μM peptide, room temperature
Source text: CD spectra were obtained using a J-815 CD spectrometer (Jasco) using the wavelength range of 190 to 260 nm. Spectra were collected in a 10 mm quartz cuvette and each spectrum represents the accumulation of three solvent-blank subtracted runs. Data were collected using the following system parameters: bandwidth of 1.00 nm, digital integration time of 2 s, pitch of 1.0 nm, and a scan speed of 50 nm/min. Data underwent minimal adaptive smoothing, and all the related spectra were taken at room temperature under inert nitrogen flow. Peptides were solubilized to 50 μM in either Milli-Q water, 45 mM sodium phosphate buffer (pH 7.4), 30 mM SDS (pH 7.4), or 50% (v/v) TFE. Percentage of α helicity was calculated based on the ellipticity value at 222 nm as done previously ([25], [63]), following the equation α helicity (%)=([ϴ]obs222-[ϴ]0)/([ϴ]max222-[ϴ]0) where [ϴ]max222 = (−44,000 + 250T) (1-x/n), [ϴ]0 = […], T = 20 °C, x = 3, n = number of residues ([25], [63]).

MCF-7 ER + cells = assay: Soft agar colony formation assay (anchorage independent growth); format: cell-based; conditions: MCF-7, E2 1 nM, peptide 20 μM, 14 to 18 days
Procedure: Figure 6 Soft agar colony formation assay. (A) soft agar average colony size and (B) average colony formation in MCF-7 ER + cells assessed in the presence of vehicle (EtOH), E2 (1 nM), and the indicated peptide treatments (WT, LL, or LD) at 20 μM. Graphed data represent the mean ± SD (n = 6). An ordinary one-way ANOVA was used to assess statistical significance where ‘∗’ indicates p < 0.05, ‘∗∗’ indicates p < 0.01, ‘∗∗∗’ indicates p < 0.001. ER, estrogen receptor.
Cells were seeded (1.5 × 10^4 cells/well) in 1X sterile low melt agarose (Life Technologies) containing 5% dextran-coated charcoal and the appropriate treatment. Soft agar assays were allowed to proceed for 14 to 18 days at 37 °C. Afterward, cell colonies were stained with 0.005% crystal violet in PBS. Colony number and colony size were analyzed with ImageJ (Wayne Rasband, National Institutes of Health, http://rsbweb.nih.gov/ij/). Data are presented as the average ± SD of six independent measurements.

[2] = biological target: SRC2-LD, FTDR-stapled, FITC-labelled; assay: fluorescence polarisation; saturation fluorescence anisotropy; ERα-LBD serially diluted to 0.4-7500 nM with 17β-estradiol at four equivalents to ERα; FITC-peptide 50 nM; 10 mM Hepes pH 7.4, 50 mM EDTA, 150 mM NaCl, 0.005% Tween-20; 96-well plates
[3] = biological target: SRC2-LL, FTDR-stapled, FITC-labelled; assay: as above

α-helicity (%) ([1]; 30 mM SDS micellar solution, pH 7.4)	α-helicity (%) ([1]; 45 mM sodium phosphate buffer, pH 7.4)	α-helicity (%) ([1]; 50% (v/v) TFE in water, pH 7.4)	α-helicity (%) ([1]; Water)	fold increase in Kd against SRC2-RCM [2] [fold]	fold increase in Kd against SRC2-RCM [3] [fold]	Substance	downregulation of colony size compared to the vehicle (MCF-7 ER + cells) [%]	average colony size (MCF-7 ER + cells; n = 6)
57.9	17	84	12.8			HKILHRLLQDS [SRC2-WT]	19	10,193 μm^2
				1.2	1.5	estrogen receptor α ligand-binding domain (domain or fragment)		

Reference: publication PMC11667158, “Flexible fluorine-thiol displacement stapled peptides with enhanced membrane penetration for the estrogen receptor/coactivator interaction” (The Journal of Biological Chemistry, 2024)
